target: T1, human leukocyte elastase (Homo sapiens, UniProt P08246); experiment: Human leukocyte elastase (HLE) inhibition, progress-curve assay with MeOSuc-Ala-Ala-Pro-Val-pNA; assay type: biochemical; conditions: substrate MeOSuc-Ala-Ala-Pro-Val-pNA, pH 7.8, 25° C., absorbance 410 nm, read-out: Ki (human leukocyte elastase inhibitory activity)
T1 sequence (P08246 30-267): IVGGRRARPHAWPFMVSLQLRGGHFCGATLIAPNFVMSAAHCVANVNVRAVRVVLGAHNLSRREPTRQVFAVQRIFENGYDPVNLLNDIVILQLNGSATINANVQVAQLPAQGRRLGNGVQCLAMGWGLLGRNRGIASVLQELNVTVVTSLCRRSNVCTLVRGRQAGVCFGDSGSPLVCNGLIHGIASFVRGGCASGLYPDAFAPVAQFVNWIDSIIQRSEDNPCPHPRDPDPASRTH
Method: The test compound (inhibitor) is dissolved in DMSO in a vial to produce an inhibitor stock solution which has a concentration in the range of 200-1000 μM. The inhibitor stock solution is diluted (1:4, 1:16 and 1:64) into assay vials (vials 1, 2 and 3 respectively) containing 2.4 mL of buffer solution (50 mM N-[2-hydroxyethyl] piperazine-N'-[2-ethanesulfonic acid]/NaOH, 500 mM NaCl, pH 7.8 at 25° C.) and DMSO is added so that the total volume in each vial is 3.2 mL. 70 μL, 50 μL, 35 μL and 25 μL of inhibitor from assay vial 1 is placed into the first four wells of a 96-well microtiter plate and each well is made up to 90 μL total volume with the addition of a 25% DMSO/buffer solution. The inhibitor from assay vials 2 and 3 is processed in a similar manner and placed in wells 5-12 respectively to afford a total of 12 different inhibitor concentrations. Four wells (wells 13-16) containing 90 μL of the 25% DMSO/buffer solution but no inhibitor are also run simultaneously with the inhibited wells as a control. 150 μL of substrate solution (prepared by the addition of 500 μL of the human leukocyte elastase (HLE) substrate MeOSuc-Ala-Ala-Pro-Val-pNA (18.7 mM in DMSO) to 19.5 mL of buffer solution) was then added simultaneously into each of the 16 wells and the solution in each well was thoroughly mixed.
The 96-well microtiter plate was placed into a Microplate Reader #89815A spectrophotometer 110 μL of the enzyme solution (prepared as follows: a mixture of 20 mL of buffer solution and 20 mg of bovine serum albumen is gently vortexed in a scintillation vial and 5 μL HLE stock solution (1 mg/mL dissolved in deionized water) is added simultaneously to each of the 16 wells. Each of the solutions in the wells is throughly mixed and then the time-dependent absorbance data is collected at an absorbance of 410 nm until the assay is complete. It should be noted that although this assay method can be done manually, it is preferred to perform the assay robotically using a Hewlett Packard MicroAssay System Robot.
A plot of the absorbance versus time data thus obtained affords progress curves the final slope of which is equal to the final steady-state velocities (VF). Using the program. ENZFITTER (Elsevier software), the progress curves for the four control assays ([I]=O) are fit by linear regression to yield the enzyme reaction velocity values in the absences of inhibitor (Vo) which are averaged to produce a single fixed value. The inhibition constant Ki (nM) is then obtained from a plot of [formula] which affords a linear plot wherein: [formula] and [S] is the concentration of the substrate and Km is the Michaelis constant.
Table IV summarizes the results obtained from the testing of representative compounds of the invention for human leukocyte elastase inhibitory activity.

SMILES	Ki
COc1cc2c(c(C(C)C)c1OC)C(=O)N(c1c(F)c(F)nc(F)c1F)S2(=O)=O [Example 3]	47.5 nM
COc1ccc2c(c1OC)C(=O)N(c1c(F)c(F)nc(F)c1F)S2(=O)=O [Example 5]	15 nM
CCCc1c(OC)c(OC)cc2c1C(=O)N(c1c(F)c(F)nc(F)c1F)S2(=O)=O [Example 6]	16 nM
CCOc1cccc2c1C(=O)N(c1c(F)c(F)nc(F)c1F)S2(=O)=O [Example 8]	1.4 nM
CC(C)Oc1cccc2c1C(=O)N(c1c(F)c(F)nc(F)c1F)S2(=O)=O [Example 9]	140 nM
COc1ccc2c(c1)S(=O)(=O)N(c1c(F)c(F)nc(F)c1F)C2=O [Example 10A]	74 nM

Continued by falling Ki, values first:

Ki	SMILES
2000 nM	CC(C)c1cc(O)cc2c1C(=O)N(c1c(F)c(F)nc(F)c1F)S2(=O)=O [Example 11, 4-isopropyl-6-hydroxy-2-(2,3,5,6-tetrafluoro-4-pyridyl)-1,2-benzisothiazol-1,2-benzisothiazol-3(2H)-one 1,1-dioxide]
100 nM	CC(C)c1cccc2c1C(=O)N(c1c(F)c(F)nc(F)c1F)S2(=O)=O [Example 10]
50 nM	CC(C)Oc1cc(C(C)C)c2c(c1)S(=O)(=O)N(c1c(F)c(F)nc(F)c1F)C2=O [Example 12, 4-isopropyl-6-isopropoxy-2-(2,3,5,6-tetrafluoro-4-pyridyl)-1.2-benzisothiazol-3(2H)-one 1,1-dioxide]
38 nM	COc1cc(C(C)C)c2c(c1)S(=O)(=O)N(c1c(F)c(F)nc(F)c1F)C2=O [Example 2, 4-isopropyl-6-methoxy-2-(2,3,5,6-tetrafluoro-4-pyridyl)-1,2-benzisothiazol-3(2H)-one 1,1-dioxide]
20 nM	O=C1c2ccccc2S(=O)(=O)N1c1c(F)c(F)nc(F)c1F [Example 1, 2-(2,3,5,6-tetrafluoro-4-pyridyl)-1,2-benzisothiazol-3(2H)-one 1,1-dioxide]
6.5 nM	COc1cccc2c1C(=O)N(c1c(F)c(F)nc(F)c1F)S2(=O)=O [Example 7]
4 nM	COc1cc(OC)c2c(c1)S(=O)(=O)N(c1c(F)c(F)nc(F)c1F)C2=O [Example 4]
